The source of these data is patent US9765075B2, “Substituted bridged urea analogs as sirtuin modulators” (GLAXOSMITHKLINE LLC, priority 2013, dated 2017).

As usually defined, the EC50 is the concentration at which the effect is half-maximal.

Where a chain is given by its changes, count along the chain named.

Assay in all cases: SIRT1 activation dose-response, OAcADPr assay with Ac-p53(W5) substrate
Holding throughout (format): biochemical

The target in one data set is T1, full-length hSIRT1 Q222A (Homo sapiens, UniProt Q96EB6, Q222A).
T1 construct: The following point mutants of full-length hSIRT1 were generated; made in house
T1 sequence (Q96EB6 1-747 Q222A): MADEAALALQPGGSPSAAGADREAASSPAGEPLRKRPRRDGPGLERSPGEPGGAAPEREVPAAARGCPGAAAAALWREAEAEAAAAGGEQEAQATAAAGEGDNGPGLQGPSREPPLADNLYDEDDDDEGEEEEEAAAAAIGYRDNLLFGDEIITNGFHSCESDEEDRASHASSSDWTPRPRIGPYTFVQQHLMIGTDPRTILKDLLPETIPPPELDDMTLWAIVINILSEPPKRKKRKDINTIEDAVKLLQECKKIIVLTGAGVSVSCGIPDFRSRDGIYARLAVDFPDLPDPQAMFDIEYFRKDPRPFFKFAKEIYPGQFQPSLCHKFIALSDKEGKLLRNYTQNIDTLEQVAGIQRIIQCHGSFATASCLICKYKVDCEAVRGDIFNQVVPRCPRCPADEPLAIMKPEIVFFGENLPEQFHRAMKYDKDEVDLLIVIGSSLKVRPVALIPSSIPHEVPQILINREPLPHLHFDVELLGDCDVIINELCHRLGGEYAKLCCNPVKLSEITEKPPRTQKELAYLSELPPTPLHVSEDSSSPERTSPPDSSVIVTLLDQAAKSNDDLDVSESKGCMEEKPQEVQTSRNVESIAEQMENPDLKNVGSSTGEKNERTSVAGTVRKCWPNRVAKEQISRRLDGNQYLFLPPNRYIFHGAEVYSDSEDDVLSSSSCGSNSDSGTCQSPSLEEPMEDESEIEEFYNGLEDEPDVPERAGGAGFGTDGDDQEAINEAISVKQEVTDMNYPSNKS
To be noted: for EC50: hSIRT1 Q222A, activation dose-response, Ac-p53(W5) substrate.

The next data set addresses T2, full-length hSIRT1 I223A (Homo sapiens, UniProt Q96EB6, I223A).
T2 construct: The following point mutants of full-length hSIRT1 were generated; His6 (C); made in house
T2 sequence (Q96EB6 1-747 I223A): T1 sequence (Q96EB6 1-747 Q222A) with A222Q, I223A
The conditions noted are these: for EC50: hSIRT1 I223A, activation dose-response, Ac-p53(W5) substrate.

A further data set concerns the target T3, full-length hSIRT1 I227A (Homo sapiens, UniProt Q96EB6, I227A).
T3 construct: The following point mutants of full-length hSIRT1 were generated; His6 (C); made in house
T3 sequence (Q96EB6 1-747 I227A): T1 sequence (Q96EB6 1-747 Q222A) with A222Q, I227A
To be noted: for EC50: hSIRT1 I227A, activation dose-response, Ac-p53(W5) substrate.

Consider `O=C(Nc1ccccn1)N1c2nc(-c3cccc(C(F)(F)F)c3)ccc2N2CC[C@H]1C2` [Example 7], for which, at full-length hSIRT1 Q222A, the “EC50 fold shift (mutant EC50/wild-type EC50)” value is given as 0.91, the “RVmax fold shift = (wild-type RVmax−1)/(mutant RVmax−1)” value (shortened to “RVmax fold shift =”) was found to be 0.98 and a half-maximal effect (EC50) was put at 2010 nM. In addition, at full-length hSIRT1 I223A, the “EC50 fold shift (mutant EC50/wild-type EC50)” value came out at 2.51, the “RVmax fold shift =” value is 6.90 and it took 5510 nM to reach a half-maximal effect (EC50). At full-length hSIRT1 I227A, the “EC50 fold shift (mutant EC50/wild-type EC50)” value was found to be 3.07, the “RVmax fold shift =” value was found to be 0.85 and the EC50 is 6760 nM.

Take `Cc1cnc2c(NC(=O)N3c4nc(-c5cccc(C(F)(F)F)c5)ccc4N4CC[C@H]3C4)cccc2n1` [Example 8]: on full-length hSIRT1 Q222A, the “EC50 fold shift (mutant EC50/wild-type EC50)” value was 1.07, the “RVmax fold shift =” value came out at 1.22 and the EC50 was 510 nM. In addition, at full-length hSIRT1 I223A, the “EC50 fold shift (mutant EC50/wild-type EC50)” value came to 4.91; the “RVmax fold shift =” value is 0.97; the midpoint of the response, the EC50, lay at 2360 nM. Further, at full-length hSIRT1 I227A, the “EC50 fold shift (mutant EC50/wild-type EC50)” value is on record as 6.21, the “RVmax fold shift =” value stood at 1.06 and the EC50 came out at 2980 nM.
